In patent US9783488B2 (CHDI Foundation, Inc., priority 2013, dated 2017) one finds IC50 data, which are given here for 16 compounds.

pIC50: −log10 of the molar value.

For assay [1], the target named is human catalytic domain HDAC4 protein (amino acids 648-1032) (Homo sapiens (Human), UniProt P56524). The assay is described as follows: Inhibition of HDAC4 catalytic domain enzymatic activity, fluorogenic substrate Boc-Lys(Tfa)-AMC. The note with it: HDAC4 catalytic domain enzyme, read-out: Biochemical HDAC4 IC50. From the text:
Analysis of Inhibition of HDAC4 with Class IIa Histone Deacetylase (HDAC) Inhibitors
The potency of Class IIa Histone Deacetylase (HDAC) inhibitors is quantified by measuring the Histone Deacetylase 4 (HDAC4) catalytic domain enzymatic activity using the fluorogenic substrate, Boc-Lys(Tfa)-AMC. The substrate is deacetylated to Boc-Lys-AMC by HDAC4. Cleavage by trypsin results in the release of the fluorophore AMC from the deacetylated substrate. The fluorescence of the sample is directly related to the histone deacetylase activity in the sample.
Serially dilute HDAC inhibitor compounds. […] Stocks of 6 μl aliquots of the 10 mM compound in DMSO are prepared and stored at […]. From one stock aliquot of each compound to be tested and the reference compound, a 16-point serial dilution is prepared according to Table 1 using a 125 μl 16-channel Matrix multi-channel pipette (Matrix Technologies Ltd).
2 μl (200×) of each diluted solution and each control (full activity: 100% DMSO alone or full inhibition 1 mM) is stamped into V-bottomed polypropylene 384-well compound plates using either the Bravo (384-well head from Agilent) or 12.5 μl 16-channel Matrix multi-channel pipette (Matrix Technologies Ltd).
Prepare HDAC4 catalytic domain enzyme (0.2 μg/mL).
Prepare 5× ([…]) Boc-Lys(Tfa)-AMC Substrate. 5× (50 μM) substrate is prepared just prior to the addition to the assay. A 1 mM substrate stock is made by diluting a 100 mM Boc-Lys(Tfa)-AMC in DMSO solution 1:100 by adding it drop-wise to assay buffer (equilibrated to r.t.) while vortexing at slow speed to prevent precipitation. The 5× substrate is prepared by diluting the 1 mM substrate solution 1:20 by adding it drop-wise to assay buffer (equilibrated to r.t.) while vortexing at slow speed to prevent precipitation.
Prepare 3× (30 μM) Developer/Stop Solution.
Assay. 5 μl of each solution of 1:20 diluted compound from above is transferred to a clear bottomed, black, 384-well assay plate using the Bravo or the Janus (384-well MDT head from Perkin Elmer). Using a 16-channel Matrix multi-channel pipette, 35 μl of the working solution of HDAC4 catalytic domain enzyme (0.2 μg/mL in assay buffer) is transferred to the assay plate. […] The assay plate is then shaken for two minutes on an orbital shaker at 900 rpm (rotations per minute). Next the plate is incubated for 15 minutes at 37° C. The reaction is stopped by adding 25 μl of 3× (3 μM) developer/stop solution to the assay plates using either the Bravo, Janus or a 16-channel Matrix multi-channel pipette. Assay plates are then shaken for 5 minutes on an orbital shaker at 1200 rpm. Next, the assay plates are incubated at 37° C. for 1 hour in a tissue culture incubator.

The test system of assay [2] is cellular histone deacetylase enzymatic activity in Jurkat E6-1 cells. The assay is described as follows: Inhibition of cellular HDAC activity in Jurkat E6-1 cells, fluorogenic substrate Boc-Lys(Tfa)-AMC. It counts as cell-based. The note with it: Homo sapiens, read-out: Cell IC50. The text has this:
Analysis of Inhibition of Cellular HDAC Activity with Class IIa Histone Deacetylase (HDAC) Inhibitors
The potency of Class IIa Histone Deacetylase (HDAC) inhibitors is quantified by measuring the cellular histone deacetylase enzymatic activity using the fluorogenic substrate, Boc-Lys(Tfa)-AMC. After penetration in Jurkat E6-1 cells, the substrate is deacetylated to Boc-Lys-AMC. After cell lysis and cleavage by trypsin, the fluorophore AMC is released from the deacetylated substrate only. The fluorescence of the sample is directly related to the histone deacetylase activity in the sample.
Jurkat E6.1 cell culture and plating. Jurkat E6.1 cells are cultured according to standard cell culture protocols in Jurkat E6.1 Growth Media (RPMI without phenol red, 10% FBS, 1 mM HEPES, and 1 mM Sodium Pyruvate). Jurkat E6.1 cells are counted using a Coulter Counter and resuspended in Jurkat E6.1 growth media at a concentration of 75,000 cells/35 μl. 35 μl or 75,000 cells is seeded into Greiner microtitre assay plates. The plates are then incubated at 37° C. and 5% CO2 while other assay components are being prepared.
Serially dilute HDAC inhibitor compounds. Serial dilutions of the HDAC inhibitors and control reference compound (1-(5-(3-((4-(1,3,4-oxadiazol-2-yl)phenoxy)methyl)-1,2,4-oxadiazol-5-yl)thiophen-2-yl)-2,2,2-trifluoroethanone) are made by first resuspending the lyophilized compound to a final concentration of 10 mM in […]. Stocks of 70 μl aliquots of the 10 mM compound in DMSO are prepared and stored at −20° C. From one stock aliquot of each compound to be tested and the reference compound, a 16-point serial dilution is prepared according to Table 1 using a 125 μl 16-channel Matrix multi-channel pipette.
2 μl (200×) of each diluted solution and each control (full activity: 100% DMSO alone or full inhibition 1 mM) is stamped into V-bottom polypropylene 384-well compound plates using either the Bravo, Janus, or 12.5 μl 16-channel Matrix multi-channel pipette. Each well with the 200× compound solution is diluted 1:20 by the addition of 38 μl Jurkat assay buffer+DMSO (9.5% DMSO, RPMI without phenol red, 0.09% FBS, 9 mM Hepes, and 0.9 mM Sodium Pyruvate equilibrated to r.t.)
Prepare 5× (500 μM) Boc-Lys(Tfa)-AMC substrate. 5× (500 μM) substrate is prepared just prior to the addition to the assay. The 5× substrate is prepared by diluting a 100 mM Boc-Lys(Tfa)-AMC in DMSO solution 1:200 by adding it drop-wise to Jurkat assay medium (RPMI without phenol red, 0.1% FBS, 10 mM Hepes, and 1 mM Sodium Pyruvate equilibrated to 37° C.) while vortexing at slow speed to prevent precipitation.
Prepare 3× Lysis Buffer. 10 mL of 3× lysis buffer is prepared with 8.8 mL of 3× stock lysis buffer (50 mM Tris-HCl, pH 8.0, 137 mM NaCl, 2.7 mM KCl, 1 mM MgCl2, 1% Nonidet P40 Substitute equilibrated to r.t.) and 1.2 mL of 3 mg/mL Trypsin equilibrated to r.t.
Assay. 5 μl of each solution of 1:20 diluted compound from above is transferred to the Greiner microtitre assay plates with 75,000 cells/well using the Bravo. Cells are then incubated for 2 hours at 37° C. and 5% CO2. The assay is then started by adding 10 μl of 5× (500 μM) substrate to the assay plate using either the Bravo or 16-channel Matrix multi-channel pipette. The cells are then incubated for 3 hours at 37° C. and 5% CO2. Next, 25 μl of 3× lysis buffer is added to each well using either the 125 μl 16 channel pipette or the Bravo. The assay plate is then incubated overnight (15-16 hours) at 37° C. and 5% CO2. The following day, the plates are shaken on an orbital shaker for 1 minute at 900 rpm. Finally the top read fluorescence (Excitation: 355 nm, Emission: 460 nm) is measured using PerkinElmer EnVision.

Chain of human catalytic domain HDAC4 protein (amino acids 648-1032) (P56524 648-1032): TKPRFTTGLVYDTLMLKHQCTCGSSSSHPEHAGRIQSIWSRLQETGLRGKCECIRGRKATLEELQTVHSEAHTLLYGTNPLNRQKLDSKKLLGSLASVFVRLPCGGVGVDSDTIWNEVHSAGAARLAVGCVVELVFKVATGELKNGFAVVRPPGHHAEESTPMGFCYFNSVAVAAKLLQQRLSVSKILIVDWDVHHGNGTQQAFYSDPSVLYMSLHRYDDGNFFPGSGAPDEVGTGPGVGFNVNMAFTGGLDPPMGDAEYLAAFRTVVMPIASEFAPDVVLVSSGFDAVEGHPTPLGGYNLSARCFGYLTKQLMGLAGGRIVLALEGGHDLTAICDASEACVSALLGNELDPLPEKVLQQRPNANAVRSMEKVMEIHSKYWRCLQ

One may read the pIC50 as the IC50 on a negative log10 scale, so that one unit is a factor of ten. Consider `Cc1c(F)cccc1C1(C(=O)NO)CCC2(CCOCC2)C1` (racemic) [Example 105, (±)-2-(3-fluoro-2-methylphenyl)-N-hydroxy-8-oxaspiro[4.5]decane-2-carboxamide], for which the values for the pIC50 in assay [1] and in assay [2] were 5.85 and 4.92, respectively. On to `Cc1c(F)cccc1[C@]1(C(=O)NO)CC[C@@H](c2cncnc2)C1` (relative stereo) [Example 2, (±)-(1S*,3R*)-1-(3-fluoro-2-methylphenyl)-N-hydroxy-3-(pyrimidin-5-yl)cyclopentanecarboxamide], for which the pIC50 is 6.54 in assay [1] and 5.72 in assay [2]. Taken in the same sequence, the figures for `Cc1c(F)cccc1[C@]1(C(=O)NO)CC[C@H](c2cncnc2)C1` (relative stereo) [Example 3, (±)-(1S*,3S*)-1-(3-fluoro-2-methylphenyl)-N-hydroxy-3-(pyrimidin-5-yl)cyclopentanecarboxamide] were 6.41 and 5.80. For `Cc1c(F)cccc1[C@]1(C(=O)NO)CC[C@H](c2ccc(F)cn2)C1` (relative stereo) [Example 11, (1S,3S*)-1-(3-fluoro-2-methylphenyl)-3-(5-fluoropyridin-2-yl)-N-hydroxycyclopentane carboxamide], in that order: 6.70 and 5.74.

Regarding `Cc1c(F)cccc1[C@]1(C(=O)NO)CC[C@@H](c2ccc(F)cn2)C1` (relative stereo) [Example 12, (1S,3R*)-1-(3-fluoro-2-methylphenyl)-3-(5-fluoropyridin-2-yl)-N-hydroxycyclopentane carboxamide], the pIC50 in assay [1] is 6.62; in assay [2] it was 5.63.

With `COc1ncc([C@H]2CC[C@@](C(=O)NO)(c3cccc(F)c3C)C2)cc1F` (relative stereo) [Example 44, (1S,3S*)-1-(3-fluoro-2-methylphenyl)-3-(5-fluoro-6-methoxypyridin-3-yl)-N-hydroxycyclopentanecarboxamide], the pIC50 was 6.48 in assay [1] and 5.77 in assay [2]. Taken in the same sequence, the figures for `COc1ncc([C@@H]2CC[C@@](C(=O)NO)(c3cccc(F)c3C)C2)cc1F` (relative stereo) [Example 45, (1S,3R*)-1-(3-fluoro-2-methylphenyl)-3-(5-fluoro-6-methoxypyridin-3-yl)-N-hydroxycyclopentanecarboxamide] were 6.72 and 6.38. For `Cc1c(F)cccc1[C@]1(C(=O)NO)CC[C@@H](c2cnn(C(F)F)c2)C1` (relative stereo) [Example 46, (1S,3R*)-3-(1-(Difluoromethyl)-1H-pyrazol-4-yl)-1-(3-fluoro-2-methylphenyl)-N-hydroxy cyclopentane carboxamide], in that order: 7.02 and 6.27.

`Cc1c(F)cccc1[C@]1(C(=O)NO)CC[C@@H](c2cnc(OCCN3CCCC3)c(F)c2)C1` (relative stereo) [Example 48, (1 S,3R*)-1-(3-Fluoro-2-methylphenyl)-3-(5-fluoro-6-(2-(pyrrolidin-1-yl)ethoxy)pyridin-3-yl)-N-hydroxycyclopentanecarboxamide]: the pIC50 was 6.49 in assay [1] and 6.12 in assay [2]. Turning to `Cc1c(F)cccc1[C@]1(C(=O)NO)CC[C@@H](c2ccnn2C)C1` (relative stereo) [Example 49, (1S,3R*)-1-(3-Fluoro-2-methylphenyl)-N-hydroxy-3-(1-methyl-1H-pyrazol-5-yl)cyclopentane carboxamide], the pIC50 in assay [1] is 6.77; in assay [2] it was 6.40. For `Cc1c(F)cccc1[C@]1(C(=O)NO)CC[C@H](c2ccnn2C)C1` (relative stereo) [Example 50, (1S,3S*)-1-(3-Fluoro-2-methylphenyl)-N-hydroxy-3-(1-methyl-1H-pyrazol-5-yl)cyclopentanecarboxamide], in that order: 6.60 and 5.74. As for `Cc1c(F)cccc1[C@]1(C(=O)NO)CC[C@@H](c2ccc3cnn(C(F)F)c3c2)C1` (relative stereo) [Example 54, (1S,3R*)-3-(1-(difluoromethyl)-1H-indazol-6-yl)-1-(3-fluoro-2-methylphenyl)-N-hydroxycyclopentanecarboxamide], the pIC50 in assay [1] was 7.14; in assay [2] it was 6.96. Taken in the same sequence, the figures for `Cc1c(F)cccc1[C@]1(C(=O)NO)CC[C@H](c2ccc3cnn(C(F)F)c3c2)C1` (relative stereo) [Example 55, (1S,3S*)-3-(1-(difluoromethyl)-1H-indazol-6-yl)-1-(3-fluoro-2-methylphenyl)-N-hydroxycyclopentanecarboxamide] were 7.34 and 6.80. For the compound `Cc1c(F)cccc1[C@]1(C(=O)NO)CC[C@@H](c2ccccc2)C1` (stereo in doubt) [Example 5, (1S*,3R*)-1-(3-fluoro-2-methylphenyl)-N-hydroxy-3-phenylcyclopentanecarboxamide], the pIC50 in assay [2] was 5.11. The same measure, in the same setting: in the case of `Cc1c(F)cccc1[C@]1(C(=O)NO)CC[C@H](c2ccccc2)C1` (stereo in doubt) [Example 6, (1S*,3S*)-1-(3-fluoro-2-methylphenyl)-N-hydroxy-3-phenylcyclopentanecarboxamide] it was 6.21; in that of `Cc1c(F)cccc1[C@@]1(C(=O)NO)CC[C@@H](c2ccccc2)C1` (stereo in doubt) [Example 7, (1R*,3R*)-1-(3-fluoro-2-methylphenyl)-N-hydroxy-3-phenylcyclopentanecarboxamide], 5.95.
